Test [1] concerns the target T1, Endoribonuclease toxin MazF (Escherichia coli K-12, UniProt P0AE70). Nature of the test: MazF toxin RNase activators, dose response, biochemical, fluorescence, single-stranded RNA substrate, uHTS hits (AID 588481). Format: functional.
Test [2] concerns the target T1, Endoribonuclease toxin MazF. Nature of the test: fluorescent RNA oligo signal without MazF, dose response, counter-screen for MazEF activator project, biochemical, fluorescence, single-stranded RNase substrate (AID 588502). Type of test: functional. (In general: The purpose of a counterscreen is to sort out artefacts and off-target activity.)
In test [3] the target is T2, Corticotropin-releasing factor receptor 2/Corticotropin-releasing factor-binding protein (Homo sapiens, UniProt P24387+Q13324).
T2 sequence (Q13324 whole entry): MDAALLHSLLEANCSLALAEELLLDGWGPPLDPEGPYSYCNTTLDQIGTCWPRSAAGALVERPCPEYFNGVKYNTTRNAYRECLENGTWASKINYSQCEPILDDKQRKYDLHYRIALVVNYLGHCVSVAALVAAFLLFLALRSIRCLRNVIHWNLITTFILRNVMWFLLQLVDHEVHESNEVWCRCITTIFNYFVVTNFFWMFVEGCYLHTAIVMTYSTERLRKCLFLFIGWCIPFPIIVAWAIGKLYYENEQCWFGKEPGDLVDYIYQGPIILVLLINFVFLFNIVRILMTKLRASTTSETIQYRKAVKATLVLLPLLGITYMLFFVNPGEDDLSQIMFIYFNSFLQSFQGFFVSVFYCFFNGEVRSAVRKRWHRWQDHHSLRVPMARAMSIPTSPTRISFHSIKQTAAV
T2 sequence (P24387 whole entry): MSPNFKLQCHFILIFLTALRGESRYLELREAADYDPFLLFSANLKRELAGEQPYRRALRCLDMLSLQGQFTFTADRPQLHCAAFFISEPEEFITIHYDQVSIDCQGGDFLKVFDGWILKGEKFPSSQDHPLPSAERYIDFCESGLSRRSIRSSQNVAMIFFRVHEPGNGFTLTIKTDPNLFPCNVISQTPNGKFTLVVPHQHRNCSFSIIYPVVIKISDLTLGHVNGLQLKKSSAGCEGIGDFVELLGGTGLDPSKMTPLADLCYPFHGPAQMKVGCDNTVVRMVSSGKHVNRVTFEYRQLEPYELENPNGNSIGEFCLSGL
Nature of the test: activators of CRF receptor 2 with binding protein – uHTS hits, confirmation (AID 602473). Type of test: functional. As to conditions: read-out: EC50_Mean.

Test [4] has as its target Dual specificity protein phosphatase 3 (Homo sapiens, UniProt P51452). Nature of the test: SAR VHR1 Fluorescent Assay for In Vitro dose response studies Set 3. [Related pubchem assays (depositor defined):AID1654, AID1661, AID1878]. Format: functional.
Test [5] can be described thus: NIH-3T3 fibroblast cytotoxicity, dose response, cytotoxicity control, cell-based, fluorescence, Alamar Blue, secondary assay (AID 2327).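 Further: NIH-3T3 mouse fibroblasts cultured with fluconazole at 8 µg/mL.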 Type of test: functional.
Test [6] can be described thus: cells. Format: functional, cell-based.
A short description of test [7]: C. albicans growth with fluconazole, confirmation, fluorescence, retest (AID 2467). Type of test: functional, cell-based.
The nature of test [8]: inhibitors of intracellular T. cruzi replication, confirmation, NIH3T3 host cells, beta-gal luminescence (AID 2044).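 Further: intracellular parasites grown in NIH/3T3 mouse fibroblasts as host cells; luminescent beta-galactosidase reporter signal from transgenic T. cruzi replicating inside host cells; inhibitors lower the luminescence signal.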 Type of test: functional, cell-based.
Test [9] in a line: cells. Type of test: functional, cell-based. This is another data set of the same source.
Test [10] in a line: cytotoxicity toward NIH3T3 fibroblasts, dose response, counter-screen, cell-based, ATP luminescence, mouse fibroblasts (AID 2010).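 Further: cells exposed to compound for about 90 hours before reading.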 Type of test: functional.
Test [11] concerns the target T3, Microphthalmia-associated transcription factor (Homo sapiens, UniProt O75030).
T3 sequence (O75030 whole entry): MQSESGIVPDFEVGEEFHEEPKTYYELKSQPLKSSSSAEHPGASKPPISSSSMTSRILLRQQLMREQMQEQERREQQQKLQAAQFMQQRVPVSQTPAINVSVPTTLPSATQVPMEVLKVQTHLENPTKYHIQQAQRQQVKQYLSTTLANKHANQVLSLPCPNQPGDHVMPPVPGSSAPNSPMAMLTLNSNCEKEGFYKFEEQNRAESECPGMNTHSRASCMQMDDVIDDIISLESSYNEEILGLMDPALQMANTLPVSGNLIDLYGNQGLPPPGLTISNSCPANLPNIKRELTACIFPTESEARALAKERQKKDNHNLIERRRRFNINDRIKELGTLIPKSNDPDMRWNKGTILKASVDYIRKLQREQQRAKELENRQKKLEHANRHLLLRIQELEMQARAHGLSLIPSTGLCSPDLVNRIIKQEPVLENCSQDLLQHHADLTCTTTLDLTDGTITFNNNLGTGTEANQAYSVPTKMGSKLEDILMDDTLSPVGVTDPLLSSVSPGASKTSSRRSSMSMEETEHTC
The test is described as follows: TRPM1 promoter luciferase signal decrease, dose response, MITF inhibitor project, cell-based, SK-MEL-5, cherry-picked, set 3 (AID 493073).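 Further: SK-MEL-5 melanoma cells with luciferase driven by the MITF target TRPM1 promoter.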 Type of test: functional.

Test [12] deals with A-375. Nature of the test: MITF: Counter assay: A375 proliferation Measured in Cell-Based System Using Plate Reader - 2084-03_Inhibitor_Dose_DryPowder_Activity. [Related pubchem assays (depositor defined):AID488944]. Type of test: functional. Particulars: Homo sapiens.
Test [13] concerns INS1. The test is described as follows: beta cell apoptosis inhibitors, cytokine rescue, dose response, luminescence, retest (AID 449756).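 Further: cell death triggered by IL-1 beta plus TNF-alpha plus IFN-gamma mixture; protective hits raise ATP signal compared with cytokine alone wells.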 Format: functional, cell-based. As to conditions: Rattus norvegicus.
Test [14] in a line: Shn3 3'UTR reporter inhibitors, dose response, cell-based, Clone20 osteoblasts, firefly luciferase, cherry-picked (AID 624132).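 Further: firefly luciferase luminescence from reporter carrying the Shn3 3'UTR in osteoblasts.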 Type of test: functional.
Test [15] in a line: HepG2 cell cytotoxicity, dose response, cytotoxicity control for Shn3 inhibitor project, CellTiter-Glo, cherry-picked (AID 624134). Format: functional, cell-based.
The nature of test [16]: control 3'UTR Renilla luciferase suppression, dose response, counter-screen for Shn3 inhibitor project, cell-based, Clone20-Shn3RL, cherry-picked (AID 624133). Format: functional.
Test [17] deals with INS1. The test is described as follows: protection from cytokine-driven beta-cell apoptosis, dose response, JC-1 fluorescence, INS-1E, dry powder, set 2 (AID 488867). Format: functional, cell-based. Particulars: Rattus norvegicus.
Test [18] has as its system INS1. The test is described as follows: protection from cytokine-induced mitochondrial depolarization, dose response, cell-based, INS-1E, JC-1 fluorescence ratio, dry powder (AID 488931). As to conditions: Rattus norvegicus. Type of test: functional.
Test [19] deals with Cyclin-dependent kinase 2 (Homo sapiens, UniProt P24941). Nature of the test: CDK2 kinase inhibitors, off-target check, dose response, selectivity assay for Dyrk1A inhibitor project, biochemical, cherry-picked samples (AID 602127).
The target of test [20] is Dual specificity protein kinase CLK1 (Homo sapiens, UniProt P49759). Nature of the test: CLK1 kinase inhibitors, off-target check, dose response, selectivity assay for Dyrk1A inhibitor project, biochemical, cherry-picked samples (AID 588811).

The source made the active and inactive calls.

T1 sequence (P0AE70 whole entry): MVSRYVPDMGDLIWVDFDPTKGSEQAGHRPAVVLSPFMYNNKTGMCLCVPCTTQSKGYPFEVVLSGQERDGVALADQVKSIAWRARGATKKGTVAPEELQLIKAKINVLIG
Dual specificity protein phosphatase 3, sequence (P51452 whole entry): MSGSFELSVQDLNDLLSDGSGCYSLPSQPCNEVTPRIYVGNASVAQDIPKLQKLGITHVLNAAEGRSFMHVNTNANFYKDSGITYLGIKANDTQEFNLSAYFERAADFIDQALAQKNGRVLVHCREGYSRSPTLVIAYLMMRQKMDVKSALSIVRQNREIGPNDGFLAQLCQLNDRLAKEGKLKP
Dual specificity protein kinase CLK1, sequence (P49759 whole entry): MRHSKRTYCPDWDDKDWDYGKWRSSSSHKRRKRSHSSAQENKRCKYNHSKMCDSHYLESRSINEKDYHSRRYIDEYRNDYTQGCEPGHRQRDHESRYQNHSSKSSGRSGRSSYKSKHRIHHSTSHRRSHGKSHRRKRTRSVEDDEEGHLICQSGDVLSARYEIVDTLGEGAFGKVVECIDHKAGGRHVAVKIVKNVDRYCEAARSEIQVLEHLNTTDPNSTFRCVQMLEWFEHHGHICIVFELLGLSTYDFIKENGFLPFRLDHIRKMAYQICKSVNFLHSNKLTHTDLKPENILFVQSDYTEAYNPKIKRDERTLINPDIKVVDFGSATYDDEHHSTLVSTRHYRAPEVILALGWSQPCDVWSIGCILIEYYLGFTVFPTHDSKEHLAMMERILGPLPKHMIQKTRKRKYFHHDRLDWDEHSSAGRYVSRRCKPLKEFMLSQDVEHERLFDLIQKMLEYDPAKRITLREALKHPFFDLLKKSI

`CC1CCN(c2ccc3c(c2)S(=O)(=O)c2cccc(C(=O)NCc4ccc(F)cc4)c2C3=O)CC1`: the EC50 was > 99 µM (inactive) in test [1], 38 µM (inactive) in test [2] and 5.16 µM (active) in test [3].

`COc1cccc2sc(NC(=O)c3cccc(C(F)(F)F)c3)nc12`: the IC50 in test [4] is > 66 µM (inactive).

Consider `COc1cnc(-c2ccccn2)nc1NC(C)C`, for which the EC50 in test [5] was 23.1 µM (active); in test [6] it was 19.7 µM (active); in test [7] it was > 38 µM (not active); in test [8], 2.05 µM (active); in test [9], > 350 µM (not active); in test [10], 3.77 µM (active). Besides, the AC50 is 12.4 µM (active) in [11]; 37.1 µM (active) in test [12]; 7.93 µM (active) in test [13]; 2.81 µM (active) in test [14]; 5.96 µM (active) in test [15]; 3.16 µM (active) in [16].

`C[C@@H]1CN([C@@H](C)CO)C(=O)c2cccc(NC(=O)Nc3cccc4ccccc34)c2O[C@H]1CN(C)S(=O)(=O)c1ccc2c(n1)N(C)CCO2`: the AC50 in [17] is 69.4 µM (active); in [18], 61.1 µM (active).

`Cc1ccc(CN(C)c2ncnc3ccc(-c4ccc5c(c4)OCO5)cc23)o1`: the AC50 in test [19] is 11.3 µM (active); in test [20], < 0.00195 µM (active).

As usually defined, the IC50 is the midpoint of a concentration-inhibition curve. One may read the AC50 as the concentration giving half of the maximal activity seen.
